Measured values published in PubChem BioAssay AID1918940 (Molecular Pharmacology Branch, DTP, NCI, 2023).

System: NCI-H211 complex spheroid viability
Assay: Anticancer human tumor NCI-H211 cell line growth inhibition [LSD1];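 also: luminescent viability read after seven days of drug exposure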;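 as to viability, T/C: 100% = DMSO vehicle control viability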
Details: for IC50: curve of first compound; for viability, T/C: stronger effect = lower value
Description: Multicellular complex tumor spheroid response to LSD1 Inhibitor Iadademstat in combination with a variety of drugs and investigational agents in selected tumor cell lines
The current study was undertaken to assess response to LSD1 inhibitors in combination with standard-of-care drugs and investigational agents in solid tumor complex spheroid models as well as in the K-562 leukemia. Complex spheroids include a stromal component modeled by human endothelial cells (HUVEC) and fibroblasts modeled by human mesenchymal stem cells (MSCs). The concentration ranges selected for each drug and investigational agent were based upon clinically achievable concentrations if the clinical Cmax of the agent was known.
Compounds. The drugs and investigational agents used in this study are listed on Table 1. All of the agents used, including staurosporine (NSC755774) and gemcitabine (NSC613327), were obtained from the Developmental Therapeutics Program, NCI. FDA-approved anticancer drugs are available from the NCI at http://dtp.nci.nih.gov/branches/dscb/oncology_drugset_explanation.html. Drugs and investigational agents were >95% pure by proton nuclear magnetic resonance (NMR) and liquid chromatography/mass spectrometry (LC/MS). Stock solutions were prepared at 400x in DMSO, stored at -70 degrees C, and diluted in fresh medium prior to their use. The final concentration of DMSO in cell culture wells never exceeded 0.25% (v/v). The FDA-approved anticancer drug set is available from the Developmental Therapeutics Program at https://dtp.cancer.gov/organization/dscb/obtaining/available_plates.htm. All drugs and investigational agents were tested over a range starting from a high concentration at or near the clinical Cmax and decreasing in half-log increments. If the clinical Cmax for an agent had not been determined, the highest concentration tested was 10 microM.
Cell Lines. The patient-derived cancer cell (PDC) lines: 292921-168-R-J2-PDC, K24384-001-R-PDC, and 521955-158-R2-J5-PDC pancreatic carcinomas, 556581-035-R-J1 ovarian carcinoma, 324938-238-R-J1-PDC, 855422-203-R-J1-PDC and 883617-216-R-J1-PDC urothelial bladder carcinomas, 743489-274-T-PDC renal cell carcinoma, 138582-R-J1 Merkel cell tumor, K60290-347-R-J1 and K57222-313-R-J1-PDC glioblastomas, 653999-131-R-J2-PDC, LG0703-F948-PDC, and 349418-098-R-PDC non-small cell lung carcinomas, 885512-296-R-J2-PDC, 171881-019-R-J1-PDC breast carcinomas and 186277-243-T-J2-PDC and 233499-124-R-J2-PDC colon carcinomas were obtained from the NCI Patient-Derived Models Repository (PDMR, https://pdmr.cancer.gov). The established cell lines NCI/ADR-RES (RRID:CVCL_14520 and OVCAR-5 (RRID:CVCL_1628) ovarian carcinomas, 786-O (RRID:CVCL_1051) and A498 (RRID:CVCL_A498) renal cell carcinoma, NCI-H211 (ATCC, cat. CRL-5824; RRID:CVCL_1529), NCI-H196 (ATCC, cat. CRL-5823, RRID:CVCL_1509), SW 1271 (ATCC, cat. CRL-2177, RRID:CVCL_1716) and NCI-H1876 (ATCC, cat. CRL-5902, RRID:CVCL_1503) small cell lung carcinomas, MDA-MB-231 (RRID:CVCL_0062) and MDA-MB-468 (RRID:CVCL_0419)breast carcinomas (10-12). Pooled donor human umbilical vein endothelial cells (HUVEC, Lonza, cat. CC-2519) and human mesenchymal stem cells (hMSC, Lonza, cat. PT-2501) were purchased from Lonza (Walkersville, MD).
Cell Culture. All cells were maintained in an incubator at 37 degrees C and 5% CO2 with 95% humidity. The PDC lines were cultured according to standard operating procedures established by the NCI PDMR (https://pdmr.cancer.gov). Briefly all PDCs were thawed and cultured in Matrigel-coated flasks prepared with a working solution of 1X Ham's F-12 nutrient mix, without supplementation (Invitrogen, Waltham, MA, cat. 11765054), 100 U/mL penicillin-streptomycin (Invitrogen, cat. 15140122), and 2.5% Matrigel (Corning Inc., Corning, NY, cat. 354248) for the first three passages. […]

`CC(C)CC(NC(=O)C(Cc1ccccc1)NC(=O)c1cnccn1)B(O)O` (stereo not given) + NC1CC1c1ccc(-c2cccc(O)c2)cc1 gave an IC50 (second compound 0.1 µM) of 3.45 nM, an IC50 (second compound 0.316 µM) of 3.26 nM and an IC50 (second compound 1 µM) of 2.99 nM. For the same compound, the IC50 (second compound 3.16 µM) was 3.46 nM, the IC50 (second compound 10 µM) was 1.78 nM and the viability, T/C (second compound 0.1 µM, first compound 0.000316 µM) was 112%. For the same compound, the viability, T/C (second compound 0.1 µM, first compound 0.001 µM) was 108%, the viability, T/C (second compound 0.1 µM, first compound 0.00316 µM) was 54.1% and the viability, T/C (second compound 0.1 µM, first compound 0.01 µM) was 1.17%. For the same compound, the viability, T/C (second compound 0.1 µM, first compound 0.0316 µM) was 0.06%, the viability, T/C (second compound 0.1 µM, first compound 0.1 µM) was 0.19% and the viability, T/C (second compound 0.316 µM, first compound 0.000316 µM) was 107%. For the same compound, the viability, T/C (second compound 0.316 µM, first compound 0.001 µM) was 119%, the viability, T/C (second compound 0.316 µM, first compound 0.00316 µM) was 51.4% and the viability, T/C (second compound 0.316 µM, first compound 0.01 µM) was 1.97%. The viability, T/C (second compound 0.316 µM, first compound 0.0316 µM) was 0.17%, the viability, T/C (second compound 0.316 µM, first compound 0.1 µM) was 0.17% and the viability, T/C (second compound 1 µM, first compound 0.000316 µM) was 83.4%. It also gave a viability, T/C (second compound 1 µM, first compound 0.001 µM) of 104%, a viability, T/C (second compound 1 µM, first compound 0.00316 µM) of 47.8% and a viability, T/C (second compound 1 µM, first compound 0.01 µM) of 0.86%. It also gave a viability, T/C (second compound 1 µM, first compound 0.0316 µM) of 0.09%, a viability, T/C (second compound 1 µM, first compound 0.1 µM) of 0.18% and a viability, T/C (second compound 3.16 µM, first compound 0.000316 µM) of 81.2%. It also gave a viability, T/C (second compound 3.16 µM, first compound 0.001 µM) of 102%, a viability, T/C (second compound 3.16 µM, first compound 0.00316 µM) of 54.2% and a viability, T/C (second compound 3.16 µM, first compound 0.01 µM) of 1.3%. For the same compound, the viability, T/C (second compound 3.16 µM, first compound 0.0316 µM) was 0.09%, the viability, T/C (second compound 3.16 µM, first compound 0.1 µM) was 0.19% and the viability, T/C (second compound 10 µM, first compound 0.000316 µM) was 70.8%. It also gave a viability, T/C (second compound 10 µM, first compound 0.001 µM) of 74.1%, a viability, T/C (second compound 10 µM, first compound 0.00316 µM) of 27.7% and a viability, T/C (second compound 10 µM, first compound 0.01 µM) of 0.47%. For the same compound, the viability, T/C (second compound 10 µM, first compound 0.0316 µM) was 0.18% and the viability, T/C (second compound 10 µM, first compound 0.1 µM) was 0.27%.

For `Nc1ccn(C2OC(CO)C(O)C2(F)F)c(=O)n1` (stereo not given) + NC1CC1c1ccc(-c2cccc(O)c2)cc1, the IC50 (second compound 0.1 µM) was under 0.949 nM, the IC50 (second compound 0.316 µM) was under 0.949 nM and the IC50 (second compound 1 µM) was under 0.949 nM. It also gave an IC50 (second compound 3.16 µM) of under 0.949 nM, an IC50 (second compound 10 µM) of under 0.949 nM and a viability, T/C (second compound 0.1 µM, first compound 0.000949 µM) of 4.79%. For the same compound, the viability, T/C (second compound 0.1 µM, first compound 0.003 µM) was 3.12%, the viability, T/C (second compound 0.1 µM, first compound 0.00949 µM) was 3.86% and the viability, T/C (second compound 0.1 µM, first compound 0.03 µM) was 4.15%. For the same compound, the viability, T/C (second compound 0.1 µM, first compound 0.0949 µM) was 4.2%, the viability, T/C (second compound 0.1 µM, first compound 0.3 µM) was 3.74% and the viability, T/C (second compound 0.316 µM, first compound 0.000949 µM) was 3.95%. The viability, T/C (second compound 0.316 µM, first compound 0.003 µM) was 4.1%, the viability, T/C (second compound 0.316 µM, first compound 0.00949 µM) was 4.15% and the viability, T/C (second compound 0.316 µM, first compound 0.03 µM) was 3.65%. For the same compound, the viability, T/C (second compound 0.316 µM, first compound 0.0949 µM) was 3.64%, the viability, T/C (second compound 0.316 µM, first compound 0.3 µM) was 3.81% and the viability, T/C (second compound 1 µM, first compound 0.000949 µM) was 3.83%. The viability, T/C (second compound 1 µM, first compound 0.003 µM) was 4.15%, the viability, T/C (second compound 1 µM, first compound 0.00949 µM) was 4.41% and the viability, T/C (second compound 1 µM, first compound 0.03 µM) was 3.58%. It also gave a viability, T/C (second compound 1 µM, first compound 0.0949 µM) of 3.35%, a viability, T/C (second compound 1 µM, first compound 0.3 µM) of 4.53% and a viability, T/C (second compound 3.16 µM, first compound 0.000949 µM) of 5.21%. It also gave a viability, T/C (second compound 3.16 µM, first compound 0.003 µM) of 4.54%, a viability, T/C (second compound 3.16 µM, first compound 0.00949 µM) of 4.13% and a viability, T/C (second compound 3.16 µM, first compound 0.03 µM) of 4.09%. It also gave a viability, T/C (second compound 3.16 µM, first compound 0.0949 µM) of 3.28%, a viability, T/C (second compound 3.16 µM, first compound 0.3 µM) of 4.65% and a viability, T/C (second compound 10 µM, first compound 0.000949 µM) of 4.67%. It also gave a viability, T/C (second compound 10 µM, first compound 0.003 µM) of 4.95%, a viability, T/C (second compound 10 µM, first compound 0.00949 µM) of 4.53% and a viability, T/C (second compound 10 µM, first compound 0.03 µM) of 5.27%. It also gave a viability, T/C (second compound 10 µM, first compound 0.0949 µM) of 3.89% and a viability, T/C (second compound 10 µM, first compound 0.3 µM) of 4.22%.
